Experimental data from ChEMBL document CHEMBL1649204, “Evaluation of analogs of reutericyclin as prospective candidates for treatment of staphylococcal skin infections” (Antimicrob Agents Chemother, 2009).
Converted amounts (≈) assume the structure as drawn. The source made the active and inactive calls. The rule behind the calls is not given here.

How the values were obtained:
[1] = test system: Staphylococcus aureus; experiment: Antimicrobial activity against methicillin-resistant Staphylococcus aureus ATCC 33591 grown as biofilms by microdilution method; type: functional
[2] = test system: Staphylococcus aureus; experiment: Antimicrobial activity against methicillin-susceptible Staphylococcus aureus ATCC 29213 grown as biofilms by microdilution method; type: functional
[3] = test system: Staphylococcus epidermidis; experiment: Antimicrobial activity against Staphylococcus epidermidis RP62A grown as biofilms by microdilution method; type: functional
[4] = test system: Staphylococcus aureus; experiment: Antimicrobial activity against methicillin-resistant Staphylococcus aureus ATCC 33591 by microdilution method; type: functional
[5] = test system: Staphylococcus aureus; experiment: Antimicrobial activity against methicillin-susceptible Staphylococcus aureus ATCC 29213 by microdilution method; type: functional
[6] = test system: Staphylococcus epidermidis; experiment: Antimicrobial activity against Staphylococcus epidermidis RP62A by microdilution method; type: functional
[7] = test system: Staphylococcus aureus; experiment: Antimicrobial activity against methicillin-susceptible Staphylococcus aureus by microdilution method; type: functional
[8] = test system: Staphylococcus aureus; experiment: Antimicrobial activity against methicillin-resistant Staphylococcus aureus by microdilution method; type: functional
[9] = test system: Staphylococcus aureus; experiment: Antimicrobial activity against mupirocin- and methicillin-resistant Staphylococcus aureus by microdilution method; type: functional
[10] = test system: Streptococcus pyogenes; experiment: Antimicrobial activity against Streptococcus pyogenes by microdilution method; type: functional
[11] = test system: Staphylococcus aureus; experiment: Antimicrobial activity against Staphylococcus aureus 8235 selected after 4 times MIC pre-incubated for 1 hr by microdilution method; type: functional
[12] = Cytotoxicity against human CCD-32Sk cells after 48 hrs by MTT assay; type: cell-based
[13] = test system: Staphylococcus aureus; experiment: Antimicrobial activity against Staphylococcus aureus 8235 by microdilution method; type: functional
[14] = Therapeutic index, ratio of IC50 for human CCD-32Sk cells to MIC for Staphylococcus aureus 8235; type: cell-based; settings: read-out: TI
[15] = test system: Staphylococcus aureus; experiment: Antimicrobial activity against Staphylococcus aureus isolate 8235 at >200 ug/ml by microdilution method in presence of 50 % human serum; type: functional, organism-based
[16] = test system: Staphylococcus aureus; experiment: Bacteriostatic activity against Staphylococcus aureus isolate 8235 assessed as log reduction in bacterial count at 32 times MIC after 24 hrs by microdilution method; type: functional
[17] = test system: Staphylococcus aureus; experiment: Antimicrobial activity against Staphylococcus aureus ATCC 29213 infected BALB/c mouse at 10 % administered topically 4 hrs post infection twice a day for 5 days; type: functional, organism-based
[18] = Homo sapiens, CCD-32Sk, 48 h, read-out: IC50

Question: For `CO[C@H]1/C=C/O[C@@]2(C)Oc3c(C)c(O)c4c(O)c(c(/C=N/N5CCN(C)CC5)c(O)c4c3C2=O)NC(=O)/C(C)=C\C=C\[C@H](C)[C@H](O)[C@@H](C)[C@@H](O)[C@@H](C)[C@H](OC(C)=O)[C@@H]1C` [RIFAMPIN], which MBEC [1] is on record?
Answer: The MBEC was 6.25 µg/mL.

Question: What about the MBEC [2] of the same compound?
Answer: Its MBEC is 25 µg/mL.

Question: What about the MBIC [2] of the same compound?
Answer: The MBIC was under 0.2 µg/mL.

Question: What about the MBEC [3] of the same compound?
Answer: Its MBEC is 50 µg/mL.

Question: What about the MBIC [3] of the same compound?
Answer: The MBIC was under 0.2 µg/mL.

Question: What about the MIC [4] of the same compound?
Answer: The MIC was 0.012 µg/mL (≈ 0.0146 µM).

Question: And the MIC [5]?
Answer: The MIC was 0.006 µg/mL (≈ 0.00729 µM).

Question: What about the MIC [6] of the same compound?
Answer: Its MIC is 0.012 µg/mL (≈ 0.0146 µM).

Question: Which results are given for `C/C(O)=C1\C(=O)[C@H](CC(C)C)N(Cc2ccc(-c3ccccc3)cc2)C1=O`?
Answer: MIC [7]: 0.8 µg/mL (≈ 2.2 µM); MIC50 [7]: 0.8 µg/mL (≈ 2.2 µM); MIC90 [7]: 1.6 µg/mL (≈ 4.4 µM); MIC50 [8]: 1.6 µg/mL (≈ 4.4 µM); MIC90 [8]: 1.6 µg/mL (≈ 4.4 µM); MIC50 [9]: 1.6 µg/mL (≈ 4.4 µM); MIC90 [9]: 1.6 µg/mL (≈ 4.4 µM); MIC50 [10]: 0.2 µg/mL (≈ 0.55 µM); MIC90 [10]: 0.8 µg/mL (≈ 2.2 µM); MIC [11]: 0.8 µg/mL (≈ 2.2 µM); IC50 [12, 18]: 529 µg/mL (≈ 1460 µM); MIC [13]: 25 µg/mL (≈ 68.8 µM); selectivity ratio [14]: 21.2; Activity [15]: inactive; FC [16]: 2.6; MBIC [1]: 0.8 µg/mL; MBEC [2]: 100 µg/mL; MBIC [2]: 3.12 µg/mL; MBEC [3]: 200 µg/mL; MBIC [3]: 1.6 µg/mL; MIC [4]: 0.8 µg/mL (≈ 2.2 µM); MIC [5]: 0.8 µg/mL (≈ 2.2 µM); MIC [6]: 0.8 µg/mL (≈ 2.2 µM)

Question: With `C=C(NC(=O)[C@@H](NC(=O)[C@H](Cc1cnc[nH]1)NC(=O)[C@@H](NC(=O)[C@H](CO)NC(=O)[C@@H]1CS[C@@H](C)[C@H]2NC(=O)C(=C)NC(=O)[C@H](NC(=O)[C@H](CCCCN)NC(=O)[C@H](CCSC)NC(=O)[C@H](CC(N)=O)NC(=O)[C@@H]3CS[C@@H](C)[C@@H](NC(=O)[C@H](CCCNN)NC(=O)[C@@H]4CS[C@@H](C)[C@@H](NC(=O)[C@@H]5CSC[C@@H](NC(=O)/C(=C\C)NC(=O)[C@@H](N)[C@@H](C)CC)C(=O)N[C@@H]([C@@H](C)CC)C(=O)NC(=C)C(=O)N[C@@H]([C@@H](C)CC)C(=O)N5)C(=O)N5CCC[C@H]5C(=O)NCC(=O)N4)C(=O)NCC(=O)N[C@@H](C)C(=O)N[C@@H]([C@@H](C)CC)C(=O)N[C@@H](CCSC)C(=O)NCC(=O)N3)[C@H](C)SC[C@H](NC2=O)C(=O)N[C@H](Cc2cnc[nH]2)C(=O)N1)[C@@H](C)CC)C(C)C)C(=O)N[C@@H](CCCCN)C(=O)O` [NISIN] as the compound, how does the IC50 ([12]; ccd-32sk) read?
Answer: The IC50 was “Not Active”.

Question: And the MIC [13]?
Answer: Its MIC is “inactive”.

Question: And the FC [16]?
Answer: The FC was 2.6.

Question: Which MIC [7] does the source give for `CCCCCCCCCCN1C(=O)/C(=C(/C)O)C(=O)[C@@H]1CC(C)C` here?
Answer: The MIC was 0.4 µg/mL (≈ 1.19 µM).

Question: And the MIC50 [7]?
Answer: The MIC50 was 0.4 µg/mL (≈ 1.19 µM).

Question: And the MIC90 [7]?
Answer: The MIC90 was 0.8 µg/mL (≈ 2.37 µM).

Question: And the MIC50 [8]?
Answer: Its MIC50 is 0.8 µg/mL (≈ 2.37 µM).

Question: What about the MIC90 [8] of the same compound?
Answer: Its MIC90 is 1.6 µg/mL (≈ 4.74 µM).

Question: What about the MIC50 [9] of the same compound?
Answer: Its MIC50 is 0.8 µg/mL (≈ 2.37 µM).

Question: What about the MIC90 [9] of the same compound?
Answer: The MIC90 was 1.6 µg/mL (≈ 4.74 µM).

Question: And the MIC50 [10]?
Answer: Its MIC50 is 0.2 µg/mL (≈ 0.593 µM).

Question: What about the MIC90 [10] of the same compound?
Answer: Its MIC90 is 0.8 µg/mL (≈ 2.37 µM).

Question: And the MIC [11]?
Answer: The MIC was 0.8 µg/mL (≈ 2.37 µM).

Question: What about the IC50 [12, 18] of the same compound?
Answer: Its IC50 is 308 µg/mL (≈ 914 µM).

Question: What about the MIC [13] of the same compound?
Answer: Its MIC is 25 µg/mL (≈ 74.1 µM).

Question: And the selectivity ratio [14]?
Answer: The selectivity ratio was 12.3.

Question: And the Activity [15]?
Answer: The Activity was “inactive”.

Question: And the FC [16]?
Answer: The FC was 2.6.

Question: What about the MBEC [1] of the same compound?
Answer: Its MBEC is 6.25 µg/mL.

Question: What about the MBIC [1] of the same compound?
Answer: The MBIC was 0.8 µg/mL.

Question: And the MBEC [2]?
Answer: The MBEC was 50 µg/mL.

Question: What about the MBIC [2] of the same compound?
Answer: Its MBIC is 3.12 µg/mL.

Question: What about the MBEC [3] of the same compound?
Answer: Its MBEC is 50 µg/mL.

Question: What about the MBIC [3] of the same compound?
Answer: The MBIC was 0.4 µg/mL.

Question: What about the MIC [4] of the same compound?
Answer: The MIC was 0.8 µg/mL (≈ 2.37 µM).

Question: And the MIC [5]?
Answer: The MIC was 0.8 µg/mL (≈ 2.37 µM).

Question: What about the MIC [6] of the same compound?
Answer: The MIC was 0.4 µg/mL (≈ 1.19 µM).

Question: And the Activity [17]?
Answer: Its Activity is “Active”.

Question: With `C/C(O)=C1\C(=O)[C@H](CC(C)C)N(CC2=CCC3CC2C3(C)C)C1=O` (some centres not stated) as the compound, how does the MIC [7] read?
Answer: The MIC was 1.6 µg/mL (≈ 4.83 µM).

Question: What about the MIC50 [7] of the same compound?
Answer: The MIC50 was 1.6 µg/mL (≈ 4.83 µM).

Question: And the MIC90 [7]?
Answer: Its MIC90 is 3.12 µg/mL (≈ 9.41 µM).

Question: What about the MIC50 [8] of the same compound?
Answer: The MIC50 was 3.12 µg/mL (≈ 9.41 µM).

Question: What about the MIC90 [8] of the same compound?
Answer: The MIC90 was 3.12 µg/mL (≈ 9.41 µM).

Question: And the MIC50 [9]?
Answer: The MIC50 was 3.12 µg/mL (≈ 9.41 µM).

Question: What about the MIC90 [9] of the same compound?
Answer: The MIC90 was 3.12 µg/mL (≈ 9.41 µM).

Question: What about the MIC50 [10] of the same compound?
Answer: The MIC50 was 0.4 µg/mL (≈ 1.21 µM).

Question: And the MIC90 [10]?
Answer: Its MIC90 is 1.6 µg/mL (≈ 4.83 µM).

Question: What about the MIC [11] of the same compound?
Answer: The MIC was 1.6 µg/mL (≈ 4.83 µM).

Question: And the IC50 [12, 18]?
Answer: The IC50 was 377 µg/mL (≈ 1140 µM).

Question: And the MIC [13]?
Answer: Its MIC is 25 µg/mL (≈ 75.4 µM).

Question: What about the selectivity ratio [14] of the same compound?
Answer: Its selectivity ratio is 15.1.

Question: What about the Activity [15] of the same compound?
Answer: Its Activity is “inactive”.

Question: What about the FC [16] of the same compound?
Answer: The FC was 2.6.

Question: What about the MBEC [2] of the same compound?
Answer: Its MBEC is “>=400 ug ml-1”.

Question: What about the MBIC [2] of the same compound?
Answer: The MBIC was 6.2 µg/mL.

Question: What about the MBEC [3] of the same compound?
Answer: The MBEC was over 400 µg/mL.

Question: And the MBIC [3]?
Answer: Its MBIC is 1.6 µg/mL.

Question: What about the MIC [4] of the same compound?
Answer: Its MIC is 1.6 µg/mL (≈ 4.83 µM).

Question: What about the MIC [5] of the same compound?
Answer: Its MIC is 1.6 µg/mL (≈ 4.83 µM).

Question: And the MIC [6]?
Answer: Its MIC is 3.12 µg/mL (≈ 9.41 µM).

Question: What about the Activity [17] of the same compound?
Answer: Its Activity is “Active”.
